This note sets out measurements from patent publication US20060223849A1, “Benzazole derivatives, compositions, and methods of use as beta-secretase inhibitors” (priority 2005, published 2006).

The test system of this assay is HEK293 cells stably expressing wildtype human APP695 protein (HEK-APPwt cells). In words: Aβ cell based assay (Aβ1-40 secretion, ELISA). Particulars: 1 hr room temperature then five-hour incubation at 37° C., Aβ1-40 ELISA, DAPT as 100% inhibition reference, read-out: EC50, reduction of Aβ1-40 secretion in the cell based assay. As to the method:
Aβ Cell Based Assay Procedure
In the following assay, the proteolytic activity of BACE in cells exposed to varying concentrations of a compound of interest is measured by observing the amount of Aβ1-40 secreted from HEK293 cells (Human Embryonic Kidney epithelial cell line) stably expressing either wildtype human APP695 protein (HEK-APPwt cells).
HEK-APPwt cells were grown in high glucose DMEM (Dulbecco's Modified Eagles Medium) with 4500 mg glucose/L,L-glutamine, NaHCO3, pyrdoxin HCl, 10 mM HEPES (4-(2-hydroxyethyl)-1-piperazineethanesulfonic acid) (pH 7.4), 0.1 mM NEAA (Non-essential Amino Acids) (GIBCO Cat#11140-050), 10% fetal bovine serum and 250 μg/ml hygromycin in T-225 flasks at 37° C. with CO2 and humidity control.
Test compounds were initially prepared in DMSO and diluted with DMEM media containing 2% FBS (Fetal bovine serum) and 0.05% Tween20. Ten standard compound solutions were prepared having a range of concentrations. The standard compound solutions were used to determine the EC50 of the test compound. The range of concentrations chosen may depend on the compound's predicted potency.
To prepare the cells for the assay, a flask containing HEK-APPwt cells were trypsinized briefly (1 mL trypsin), and once the cells detached, 4 mL of 10% FBS-DMEM was added to the flask. The detached cells were centrifuged at 900 rpm for 5 min to form a pellet.
The HEK-APPwt cell pellet was re-suspended with 10 mL DMEM media containing 2% FBS. 80 μL of the cell suspension was added to each well of a 96-well cell culture plate to give 100,000 cells/well. 10 μL of a standard compound solution was added to each well of the 96-well cell culture plate followed by 10 μL of Alamar blue solution. The cells were incubated at room temperature for 1 hr, followed by a five-hour incubation in the CO2 incubator at 37° C.
At the end of the incubation, the plates were removed from incubator, and the supernatant was collected. Aβ1-40 concentration in the medium was measured by using a commercial Aβ1-40 ELISA kit (IBL, Japan). Briefly, the ELISA plates were coated with anti-human Aβ35-40 mouse IgG monoclonal antibody. A horseradish peroxidase enzyme conjugated anti-human Aβ11-28 mouse IgG monoclone antibody was used for detection. The cell culture supernatant was diluted 1:4 fold with (EIA buffer+Protease inhibitor (buffer containing Protease Inhibitor (1 mL PI/30 mL buffer). A 100 μL aliquot of the diluted supernatant was added to each well of the ELISA plate and incubated for 6 hrs at 4° C. The ELISA plate was washed 8 times with phosphate buffered saline (PBS) containing 0.05% Tween 20.
A 100 μL of detection antibody was then added and incubated for 1 hour at 4° C. The plate was washed 8 times with PBS buffer containing 0.05% Tween 20 followed by addition of 100 μL of the substrate with the chromogen tetramethyl benzidine (TMB). The plate was incubated in the dark at room temperature for about 30 min and a stop solution (1N H2SO4) was added.
The intensity of the color developed was measured at 450 nm. The optical density at 450 nm (OD450) is proportional to the concentration of human Aβ1-40 secreted by the cell. As a reference, N—[N-(3,5-difluorophenacetyl-L-alanyl)]-S-phenylglycine t-butyl ester (DAPT, a γ-secretase inhibitor) was used to indicate 100% inhibition of BACE activity. Thus, the assay measures the ability of a compound of interest to reduce Aβ1-40 secretion. Compound potency was reported as the EC50 by calculating the percent inhibition at all concentration levels and the data were fit with non-linear curve fitting algorithm using in GraphPad Prism.
(In an ELISA, binding on a coated surface is turned into a signal by an enzyme label.)

Some results are limits rather than exact numbers.

Broadly, the EC50 is the concentration giving half of the maximal effect. As to `CCOc1cc(C(=O)Nc2ncc[nH]2)c2[nH]c(NC(=O)c3cc4ccccc4cn3)nc2c1` [Example 472, isoquinoline-3-carboxylic acid [5-ethoxy-7-(1H-imidazol-2-ylcarbamoyl)-1H-benzoimidazol-2-yl]-amide], the EC50 was no more than 2000 nM.
`CCS(=O)(=O)c1cc(C(=O)Nc2ncc[nH]2)c2[nH]c(NC(=O)c3cc4ccccc4cn3)nc2c1` [Example 491, isoquinoline-3-carboxylic acid [5-ethanesulfonyl-7-(1H-imidazol-2-ylcarbamoyl)-1H-benzoimidazol-2-yl]-amide]: the EC50 is no more than 2000 nM.
